According to patent US10202343B2, “MIF modulators” (YALE UNIVERSITY, priority 2008, dated 2019):
Read-outs that look alike come from different tables or passages of the source. Each block holds one molecule with its values, some of them ahead of it.

Legend:
[1] = biological target: T1, MIF-CD74 Binding (biotin-labeled recombinant human MIF, recombinant human MIF receptor CD74 ectodomain) (Homo sapiens, UniProt P14174); assay: MIF-CD74 binding (capture) assay; details: for CD74 % MaxInhib: number before @; for Capture IC50 / Capture % Max. Inhib.: Table 3
T1 sequence (P14174 2-115 limits assumed): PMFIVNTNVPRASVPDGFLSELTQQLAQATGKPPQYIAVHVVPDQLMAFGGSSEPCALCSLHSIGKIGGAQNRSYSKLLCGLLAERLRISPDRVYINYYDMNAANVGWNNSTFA

[2] = biological target: T2, Human MIF (MIF tautomerase activity) (Homo sapiens, UniProt P14174); assay: HPP tautomerase assay; format: biochemical; details: for IC50: read-out: HPP IC50
T2 construct: made in house
T2 sequence (P14174 2-115 limits assumed): T1 sequence (P14174 2-115 limits assumed)

[3] = Table 2, read-out: MIF-CD74 IC50

Structure (SMILES): Cc1ccc2c(c1)oc(=O)n2Cc1ccccc1 [Compound 2, 3-benzyl-6-methyl-3H-benzooxazol-2-one]
concentration of CD74 % MaxInhib (number after @) ([1]; Table 4): 1.87 µM
CD74 % MaxInhib ([1]; Table 4): 25%
IC50 ([2]; Table 1): 3.4 µM

Structure (SMILES): COc1cccc(Cn2c(=O)oc3ccc(OC)cc32)c1 [Compound 3, 5-methoxy-3-(3-methoxy-benzyl)-3H-benzooxazol-2-one]
concentration of CD74 % MaxInhib (number after @) ([1]; Table 4): 1.87 µM
concentration of HPP Max Inhib (number after @) ([2]; Table 4): > 500 µM
HPP Max Inhib ([2]; Table 4, number before @): 41%

Structure (SMILES): COc1cccc(Cn2c(=O)oc3ccc(CO)cc32)c1 [Compound 4, 5-hydroxymethyl-3-(3-methoxy-benzyl)-3H-benzooxazol-2-one]
concentration of CD74 % MaxInhib (number after @) ([1]; Table 4): 0.039 µM
CD74 % MaxInhib ([1]; Table 4): 27%
HPP Max Inhib ([2]; Table 1): 44%
concentration of HPP Max Inhib (number after @) ([2]; Table 4): 200 µM

Structure (SMILES): O=c1c2ccc(F)cc2sn1-c1ccc(Cl)cc1 [Compound 25]
activity in the capture assay [1]: agonist behavior
MIF-CD74 IC50 ([1]; Table 2): agonist
CD74 IC50 ([1]; Table 5): agonist
IC50 ([2]; Table 2): 4.2 µM

Structure (SMILES): O=c1c2ccc(F)cc2sn1-c1ccc(Cl)cc1 [Compound 26]
Capture IC50 [1]: agonist
CD74 IC50 ([1]; Table 6, data cell c9): agonist
IC50 ([2]; Table 3): 4.2 µM
IC50 ([2]; Table 6, data cell c7): 4.2 µM

Structure (SMILES): COc1cccc(-n2sc3cc(F)ccc3c2=O)c1 [Compound 28]
IC50 ([2]; Table 3): 25 µM
IC50 ([2]; Table 6, data cell c7): 25 µM

Structure (SMILES): O=c1c2ccc(F)cc2sn1-c1cccc(CO)c1 [Compound 29]
Capture % Max. Inhib. [1]: 8%
CD74 % MaxInhib ([1]; Table 6, data cell c8): 8%

Structure (SMILES): O=c1c2cc(F)ccc2sn1-c1ccc(Cl)cc1 [Compound 30]
Capture % Max. Inhib. [1]: 7%
CD74 % MaxInhib ([1]; Table 6, data cell c8): 7%

Structure (SMILES): COc1ccccc1-n1sc2ccc(Cl)cc2c1=O [Compound 31]
Capture % Max. Inhib. [1]: 7%
CD74 % MaxInhib ([1]; Table 6, data cell c8): 7%
IC50 ([2]; Table 3): 6.6 µM
IC50 ([2]; Table 6, data cell c7): 6.6 µM

Structure (SMILES): O=c1c2cc(F)ccc2sn1-c1cccc(O)c1 [Compound 32]
Capture % Max. Inhib. [1]: 13%
CD74 % MaxInhib ([1]; Table 6, data cell c8): 13%
IC50 ([2]; Table 3): 5.9 µM
IC50 ([2]; Table 6, data cell c7): 5.9 µM

Structure (SMILES): CC(=O)OCc1cccc(-n2sc3cc(F)ccc3c2=O)c1 [Compound 33]
Capture % Max. Inhib. [1]: 12%
CD74 % MaxInhib ([1]; Table 6, data cell c8): 12%
IC50 ([2]; Table 3): 2.3 µM
IC50 ([2]; Table 6, data cell c7): 2.3 µM

Structure (SMILES): O=c1c2cc([N+](=O)[O-])ccc2sn1-c1ccc(Cl)cc1 [Compound 34]
Capture % Max. Inhib. [1]: 11%
CD74 % MaxInhib ([1]; Table 6, data cell c8): 11%
IC50 ([2]; Table 3): 6.2 µM
IC50 ([2]; Table 6, data cell c7): 6.2 µM

Structure (SMILES): O=c1c2cc(C(F)(F)F)ccc2sn1-c1ccc(Cl)cc1 [Compound 35]
Capture % Max. Inhib. [1]: 12%
CD74 % MaxInhib ([1]; Table 6, data cell c8): 12%

Structure (SMILES): O=c1c2ccc(Br)cc2sn1-c1ccc(Cl)cc1 [Compound 36]
Capture % Max. Inhib. [1]: 10%
CD74 % MaxInhib ([1]; Table 6, data cell c8): 10%
IC50 ([2]; Table 3): 11 µM
IC50 ([2]; Table 6, data cell c7): 11 µM

Structure (SMILES): COc1cccc(-n2sc3ccc(F)cc3c2=O)c1 [Compound 38]
Capture IC50 [1]: agonist
CD74 IC50 ([1]; Table 6, data cell c9): agonist
IC50 ([2]; Table 3): 8 µM
IC50 ([2]; Table 6, data cell c7, listed as MIF-113): 8 µM

Structure (SMILES): O=c1c2cc(Br)ccc2sn1-c1ccc(Cl)cc1 [Compound 39]
IC50 ([2]; Table 3): 7.9 µM
IC50 ([2]; Table 6, data cell c7): 7.9 µM

Structure (SMILES): N#Cc1ccc2sn(-c3ccc(Cl)cc3)c(=O)c2c1 [Compound 40]
Capture IC50 [1]: agonist
CD74 IC50 ([1]; Table 6, data cell c9): agonist
IC50 ([2]; Table 3): 19 µM
IC50 ([2]; Table 6, data cell c7): 19 µM

Second part, the molecule after the results:

concentration of CD74 % MaxInhib (number after @) ([1]; Table 4): 1.87 µM
CD74 % MaxInhib ([1]; Table 4): 42%
IC50 ([2]; Table 1): 2.9 µM
Structure (SMILES): COc1cccc(Cn2c(=O)oc3ccc(C)cc32)c1 [Compound 5]

concentration of CD74 % MaxInhib (number after @) ([1]; Table 4): 0.039 µM
Structure (SMILES): COc1ccccc1Cn1c(=O)oc2ccc(F)cc21 [Compound 10]

concentration of CD74 % MaxInhib (number after @) ([1]; Table 4): 0.039 µM
CD74 % MaxInhib ([1]; Table 4): 22%
HPP Max Inhib ([2]; Table 1): 28%
concentration of HPP Max Inhib (number after @) ([2]; Table 4): 5 µM
Structure (SMILES): O=c1oc2cc(O)ccc2n1Cc1ccccc1 [Compound 14]

concentration of CD74 % MaxInhib (number after @) ([1]; Table 5): 0.039 µM
IC50 ([1]; Table 5, read-out: CD74 IC50): > 1000 µM
concentration of HPP Max Inhib (number after 'at') ([2]; Table 5): 5 µM
Structure (SMILES): c1ccc(Cn2c(-c3cscn3)nc3ccccc32)cc1 [Compound 17, 4-(1-benzyl-1H-benzo[d]imidazol-2-yl)thiazole]

concentration of CD74 % MaxInhib (number after @) ([1]; Table 5): 0.078 µM
Structure (SMILES): N#Cc1nc2ccccc2n1Cc1ccccc1 [Compound 18, 1-Benzyl-1H-benzoimidazole-2-carbonitrile]

concentration of CD74 % MaxInhib (number after @) ([1]; Table 5): 1.87 µM
CD74 % MaxInhib ([1]; Table 5): 40%
HPP Max. Inhib. ([2]; Table 2): 38%
Structure (SMILES): c1ccc(Cn2c(Cc3ccccn3)nc3ccccc32)cc1 [Compound 19]

concentration of CD74 % MaxInhib (number after @) ([1]; Table 13): 0.058 µM
Structure (SMILES): O=C(c1cc2ccccc2o1)c1cc2ccccc2o1 [Compound 20, bisbenzofuran-2-yl methanone]

IC50 [1, 3]: 4 µM
IC50 ([1]; Table 5, read-out: CD74 IC50): 4 µM
IC50 ([1]; Table 14, read-out: CD74 IC50): 4 µM
IC50 ([2]; Table 5): 3 µM
Structure (SMILES): O=C(c1cc2ccccc2o1)N1CCc2ccccc21 [Compound 21]

IC50 [1, 3]: 2.5 µM
IC50 ([1]; Table 5, read-out: CD74 IC50): 2.5 µM
IC50 ([1]; Table 15, read-out: CD74 IC50): 2.5 µM
IC50 ([2]; Table 15): 730 µM
Structure (SMILES): CC(=O)Oc1ccc2nc(-c3cc4ccccc4o3)oc(=O)c2c1 [Compound 22]

IC50 [1, 3]: 1500 µM
IC50 ([1]; Table 5, read-out: CD74 IC50): 1500 µM
IC50 ([1]; Table 16, read-out: CD74 IC50): 1500 µM
Structure (SMILES): O=C(O)COc1ccc2occ(C(=O)c3ccccc3)c2c1 [Compound 23]

IC50 [1, 3]: 5000 µM
IC50 ([1]; Table 5, read-out: CD74 IC50): 5000 µM
IC50 ([1]; Table 22, read-out: CD74 IC50): 5000 µM
Structure (SMILES): c1ccc(COc2ccc3cc(-c4cc[nH]c4)[nH]c3c2)cc1 [Compound 24]

IC50 ([2]; Table 3): 6.2 µM
Structure (SMILES): COc1ccc(-n2sc3cc(F)ccc3c2=O)cc1 [Compound 27]
